Measurements published in patent US7081260B2, “α-Glucosidase inhibitors from a natural source” (Council of Scientific and Industrial Research, priority 2002, dated 2006).
Converted amounts (≈) assume the structure as drawn.

What was measured:
Aedus Eriseratus larvae = conditions: against Aedus Eriseratus larvae; cited from earlier work
8 Mycobacterium stains = conditions: against 8 Mycobacterium stains; cited from earlier work
[1] = system: p. gossipiella, H. virescens, H. ze; conditions: against p. gossipiella; cited from earlier work
[2] = molecular target: yeast α-glucosidase enzyme; assay: α-glucosidase inhibitory assay by the chromogenic method; assay type: biochemical; conditions: p-nitrophenyl-α-D-glucopyranoside substrate; for IC50 value: pH 7.00; for α-glucosidase inhibitory activity up to: pH 7.00, maximum inhibition
Experimental: Determination of α-Glucosidase Inhibition Activity of Compounds Isolated From P. longum:
The α-glucosidase inhibitory assay was done by the chromogenic method. In brief 10 μl of test compounds dissolved in DMSO (5 mg/ml and subsequent dilutions) were incubated for 5 min. with 5 μl of yeast α-glucosidase enzyme prepared in 100 mM phosphate buffer (pH 7.00). After 5 minutes of incubation, […] of 5 mM substrate (p-nitrophenyl-α-D-glucopyranoside prepared in the same buffer) were added. The pre-substrate and 5-min post-substrate addition absorbances were recorded at 405 nm spectrophotometrically. The increases in absorbance from pre-substrate addition to post substrate reaction were obtained. Percent inhibition was calculated by (1-O.D test/O.D control)×100 and inhibitory concentration 50% (IC50) was calculated by applying suitable regression analysis.

Cladosporiumsphaerosperm = conditions: against Cladosporiumsphaerosperm; cited from earlier work
[3] = system: Moth fly (Telmatoscopus Albipunctatus); conditions: against Moth fly (Telmatoscopus Albipunctatus); cited from earlier work
Collosobruchus chinenses = conditions: against Collosobruchus chinenses; cited from earlier work
[4] = system: Leplinotarsa dectmlineata; conditions: against Leplinotarsa dectmlineata; cited from earlier work
Musca Domestica = conditions: against Musca Domestica; cited from earlier work
Toxocara canis = conditions: against Toxocara canis; cited from earlier work
[5] = in vivo; cited from earlier work

| Compound | BIOLOGICAL ACTIVITY: larvicida activity (Aedus Eriseratus larvae) | BIOLOGICAL ACTIVITY: antituberculotic (8 Mycobacterium stains) | BIOLOGICAL ACTIVITY: insect growth inhibitor [1] | IC50 value [2] [µg/mL] | α-glucosidase inhibitory activity up to [2] | BIOLOGICAL ACTIVITY: antifungal (Cladosporiumsphaerosperm) | BIOLOGICAL ACTIVITY: insecticidal [3] | BIOLOGICAL ACTIVITY: insecticidal (Collosobruchus chinenses) | BIOLOGICAL ACTIVITY: ovicidal [4] | BIOLOGICAL ACTIVITY: insecticidal (Musca Domestica) | BIOLOGICAL ACTIVITY: larvicidal (Toxocara canis) | BIOLOGICAL ACTIVITY: insecticidal activity [5] |
| --- | --- | --- | --- | --- | --- | --- | --- | --- | --- | --- | --- | --- |
| CCCCCC=CC=CC(=O)NCC(C)C [pellitorine, N-(2-methylpropyl)-2,4-decadienamide] | Larvicida activity against | Antituberculotic against 8 | Insectgrowth inhibitor against | 34.43 (≈ 154 µM) | up to 86.03% | Antifungal against | Insecticidal activities against | Insecticidal against | Ovicidal against Leplinotarsa | Insecticidal against Musca | – | – |
| CC(C)CNC(=O)/C=C/C=C/CCCCCC/C=C/c1ccc2c(c1)OCO2 [guineensine, 13-(1,3-benzodioxol-5-yl)-N(2-methylpropyl)-2,4,12-tri decatrienamide] | – | – | – | 20.15 (≈ 52.5 µM) | up to 61.71% | – | – | Insectcidal against | – | – | Larvicidal against Toxocara | Insecticidal activity |
| c1cc2c(cc1[C@H]1OC[C@H]3[C@@H]1CO[C@@H]3c1ccc3c(c1)OCO3)OCO2 [sesamin, 5,5-(tetrahydro-1H,3H-furo(3,4-e)furan-1,4-diyl)bis-1,3-benzodioxol] | – | – | – | 36.35 (≈ 103 µM) | up to 76.18% | – | – | – | – | – | – | – |
| CC(C)CNC(=O)C=CC=CCCCCCCCCC=Cc1ccc2c(c1)OCO2 [brachystamide-B, 15-(1,3-benzodioxol-5-yl)-N(2-methylpropyl)-2,4,14-pentadecatrienamide] | – | – | – | 33.61 (≈ 81.7 µM) | up to 73.90% | – | – | – | – | – | – | – |
| CCCCCCCCCCC=Cc1ccc2c(c1)OCO2 [pipataline, 5-(1-dodecenyl)-1,3-benzodioxol] | – | – | – | 26.52 (≈ 91.9 µM) | up to 77.45% | – | – | – | – | – | – | – |
